Measurements taken from patent publication US11208404B2 (PERENNA PHARMACEUTICALS, INC., priority 2017, dated 2021).
Where two headings read alike, the source gives them in different places.

Target: ALCAT1 (Homo sapiens (Human), UniProt Q6UWP7)
Test: In vitro acyltransferase assay for ALCAT1 inhibitors
Format: biochemical
Details: for inhibition at 1 µM / % inh @ 1 μM: 1 μM compound; for IC50: ALCAT1 enzyme activity
Source text: The human ALCAT1 protein were expressed in Spodoptera frugiperda (Sf9) insect cells by using a Bac-to-Bac baculovirus expression system (Invitrogen) according to the manufacturer's instruction. High-titer recombinant baculovirus expressing the human ALCAT1 protein was generated by several rounds of viral amplification. The Sf9 cells were typically infected with recombinant baculovirus for 3 days, harvested in ice-cold phosphate-buffered saline (PBS), and homogenized in 20 mm NaCl by going through French press. The total cell lysates were centrifuged at 10,000×g for 1 hours at 4° C. to eliminate the nucleus fraction, followed by ultracentrifugation at 100,000×g to pallet the membrane fraction. The membrane fraction was resuspended in enzymatic buffer that contain 10% glycerol, quantified for protein concentration, aliquoted, and stored at −80° C.
ALCAT1 enzymatic activity was determined by measuring the conversion of monolysocardiolipin (MLCL) to cardiolipin or lysophosphatidylglycerol (LPG) to phosphatidylglycerol (PG) in an enzymatic reaction mixture that contained 50 mm Tris/HCl, pH 7.0, 100 μm lysophospholipids, 25 μm [^14C]acyl-CoA (50 mCi/mmol, American Radiolabeled Chemicals, Inc), and membrane fraction (0.5-2.5 μg) in a total volume of 200 μl. The reaction was incubated at room temperature for 30 min. The lipids were extracted will chloroform, dried, and separated by thin layer chromatography (TLC) with chloroform:hexane:methanol:acetic acid (50:30:10:5, v/v) or chloroform:methanol:water (65:25:4, v/v). After separation, TLC plates were exposed to a Phosphorlmager screen to visualize the radiolabeled products with a Molecular Dynamics Typhoon Scanner (Sunnyvale, Calif.). In some experiments, NBD-CoA was used at 100 μM to replace the [^14C]acyl-CoA in the enzymatic reaction. All quantitative data were expressed as mean±S.E. Statistical analyses for differences between two groups were carried out using a Student's t test.
Compound inhibitors for ALCAT1 enzyme were analyzed by an in vitro enzymatic assay as detailed above. Compound inhibitors were added to the enzymatic mixture at 1-20 μM concentrations before the start of the acyltransferase reaction.
Where multiple measurements were taken this is indicated by a “/” between multiple values.
IC50 values for each compound were analyzed in triplicates, and calculated by GraphPad software.

[1] = triplicates, GraphPad, read-out: IC50

Sequence of ALCAT1 (Q6UWP7 whole entry): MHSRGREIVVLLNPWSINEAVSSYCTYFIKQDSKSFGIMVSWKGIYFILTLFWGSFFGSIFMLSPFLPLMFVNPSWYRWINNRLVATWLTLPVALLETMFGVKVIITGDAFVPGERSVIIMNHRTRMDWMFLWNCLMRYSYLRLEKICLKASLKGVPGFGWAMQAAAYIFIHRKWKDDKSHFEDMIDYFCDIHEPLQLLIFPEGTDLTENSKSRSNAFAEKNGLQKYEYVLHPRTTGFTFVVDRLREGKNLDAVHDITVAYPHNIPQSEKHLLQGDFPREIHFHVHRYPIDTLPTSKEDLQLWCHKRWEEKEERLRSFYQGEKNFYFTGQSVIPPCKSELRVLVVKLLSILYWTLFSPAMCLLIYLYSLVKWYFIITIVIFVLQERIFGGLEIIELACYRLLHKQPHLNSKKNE

| inhibition at 1 µM (in vitro enzymatic assay) | inhibition at 10 µM (10 μM compound, in vitro enzymatic assay) | IC50 [1] | % inh @ 1 μM (in vitro enzymatic assay) | IC50 (read-out: IC50 values (upper bounds)) | SMILES |
| --- | --- | --- | --- | --- | --- |
| 80% | 97% | 79 nM |  |  | COc1ccc(C)cc1C(=O)Nc1cccc(-c2nnc(-c3ccco3)o2)c1 [Compound 197, N-(3-(5-(Furan-2-yl)-1,3,4-oxadiazol-2-yl)phenyl)-2-methoxy-5-methylbenzamide] |
|  |  | 1900 nM |  |  | O=C(Nc1cccc(-c2nnc(-c3ccco3)o2)c1)c1cccc(Br)c1 [Compound 203] |
| 86% |  | 190 nM | 87% |  | CCCOc1ccc(C)cc1C(=O)Nc1cccc(-c2nnc(-c3ccco3)o2)c1 [Compound 207] |
| 95% |  | 96 nM | 97% |  | O=C(Nc1cccc(-c2nnc(-c3ccco3)o2)c1)c1cc(OC(F)(F)F)ccc1F [Compound 211, 2-Fluoro-N-(3-(5-(furan-2-yl)-1,3,4-oxadiazol-2-yl)phenyl)-5-(trifluoromethoxy)benzamide] |
| 26% |  |  |  |  | O=C(Nc1cccc(-c2nnc(-c3ccco3)o2)c1)c1ccc2occc2c1 [Compound 212] |
| 56% |  |  | 64% |  | CCCCOc1ccccc1C(=O)Nc1cc(-c2nnc(-c3ccco3)o2)ccc1F [Compound 213] |
| 67% |  |  | 76% |  | COc1ccc(F)c(C(=O)Nc2cccc(-c3nnc(-c4ccco4)o3)c2)c1 [Compound 214] |
| 100% |  | 26 nM | 100/100% | < 100 nM | CCOc1ccccc1C(=O)Nc1cc(-c2nnc(-c3ccco3)o2)ccc1F [Compound 215, 2-Ethoxy-N-(2-fluoro-5-(5-(furan-2-yl)-1,3,4-oxadiazol-2-yl)phenyl)benzamide] |
| 69% |  |  | 68% |  | CC(C)COc1ccccc1C(=O)Nc1cccc(-c2nnc(-c3ccco3)o2)c1 [Compound 217] |
| 99% |  | 67 nM | 98% |  | CCOc1ccc(C)cc1C(=O)Nc1cccc(-c2nnc(-c3ccco3)o2)c1 [Compound 218, 2-Ethoxy-N-(3-(5-(furan-2-yl)-1,3,4-oxadiazol-2-yl)phenyl)-5-methylbenzamide] |
| 96% |  | 120 nM | 94% |  | COc1c(F)cccc1C(=O)Nc1cccc(-c2nnc(-c3ccco3)o2)c1 [Compound 220] |
| 94% |  | 150 nM | 90% |  | O=C(Nc1cccc(-c2nnc(-c3ccco3)o2)c1)c1ccccc1OCC(F)(F)F [Compound 223] |
| 91% |  | 190 nM | 97% |  | Cc1ccc(OCC(F)(F)F)c(C(=O)Nc2cccc(-c3nnc(-c4ccco4)o3)c2)c1 [Compound 224] |
| 92% |  | 100 nM | 97% |  | O=C(Nc1cccc(-c2nnc(-c3ccco3)o2)c1)c1cc(Cl)ccc1OCC(F)(F)F [Compound 225, 5-Chloro-N-(3-(5-(furan-2-yl)-1,3,4-oxadiazol-2-yl)phenyl)-2-(2,2,2-trifluoroethoxy)benzamide] |
| 100% |  | 60 nM | 99% |  | O=C(Nc1cccc(-c2nnc(-c3ccco3)o2)c1)c1cc(Br)ccc1OCC(F)(F)F [Compound 226, 5-Bromo-N-(3-(5-(furan-2-yl)-1,3,4-oxadiazol-2-yl)phenyl)-2-(2,2,2-trifluoroethoxy)benzamide] |
| 85% |  | 160 nM | 89% |  | O=C(Nc1cccc(-c2nnc(-c3ccco3)o2)c1)c1cccc2ccoc12 [Compound 227] |
| 100% |  | 72 nM | 99% |  | O=C(Nc1cccc(-c2nnc(-c3ccco3)o2)c1)c1cc(F)ccc1OCC(F)(F)F [Compound 228, 5-Fluoro-N-(3-(5-(furan-2-yl)-1,3,4-oxadiazol-2-yl)phenyl)-2-(2,2,2-trifluoroethoxy)benzamide] |
| 97% |  | 170 nM | 97/97% |  | O=C(Nc1cc(Cl)ccc1F)c1cccc(-c2nnc(-c3ccco3)o2)c1 [Compound 229] |
| 94% |  | 410 nM | 89% |  | COc1ccc(Cl)cc1NC(=O)c1cccc(-c2nnc(-c3ccco3)o2)c1 [Compound 230] |
| 61% |  |  | 61/61% |  | O=C(Nc1cccc(-c2nnc(-c3ccco3)o2)c1)c1ccccc1OC(F)(F)F [Compound 232] |
| 68% |  |  | 65% |  | O=C(Nc1cccc(-c2nnc(-c3ccco3)o2)c1)c1cccc(OC(F)(F)F)c1 [Compound 233] |
| 46% |  |  | 42% |  | O=C(Nc1cccc(-c2nnc(-c3ccco3)o2)c1)c1cccc(C(F)(F)F)c1 [Compound 234] |
| 12% |  |  |  |  | O=C(Nc1cccc(-c2nnc(-c3ccco3)o2)c1)c1cccnc1 [Compound 235] |

| inhibition at 1 µM (in vitro enzymatic assay) | inhibition at 10 µM (10 μM compound, in vitro enzymatic assay) | IC50 [1] | % inh @ 1 μM (in vitro enzymatic assay) | IC50 (read-out: IC50 values (upper bounds)) | SMILES |
| --- | --- | --- | --- | --- | --- |
| 7% |  |  | 8% |  | O=C(Nc1cccc(-c2nnc(-c3ncco3)o2)c1)c1ccccc1F [Compound 236] |
| 35% |  |  | 46% |  | O=C(Nc1cccc(-c2nnc(-c3ccco3)o2)c1)c1ccncc1 [Compound 237] |
| 23% |  |  | 23/23% |  | O=C(Nc1cccc(-c2nnc(-c3ccco3)o2)c1)c1cccc(-c2ccccc2)c1 [Compound 238] |
| 12% |  |  | 6% |  | CCc1ccccc1C(=O)Nc1cccc(-c2nnc(-c3ccco3)o2)c1 [Compound 240] |
| 30% |  |  | 50% |  | CS(=O)(=O)c1ccccc1C(=O)Nc1cccc(-c2nnc(-c3ccco3)o2)c1 [Compound 248] |
| 83% |  | 780 nM | 84% |  | Cc1ccc(F)c(NC(=O)c2cccc(-c3nnc(-c4ccco4)o3)c2)c1 [Compound 271] |
| 97% |  | 120 nM | 96% |  | O=C(Nc1cccc(-c2nnc(-c3ccco3)o2)c1)c1ccccc1OC(F)F [Compound 273] |
| 98% |  | 200 nM | 99% |  | O=C(Nc1cccc(-c2nnc(-c3ccco3)o2)c1)c1ccccc1OCC(F)F [Compound 275] |
| 23% |  |  | 23/23% |  | CC(C)c1cccc(C(=O)Nc2cccc(-c3nnc(-c4ccco4)o3)c2)c1 [Compound 277] |
| 97% |  | 120 nM | 100% |  | COc1ccc(C(F)(F)F)cc1C(=O)Nc1cccc(-c2nnc(-c3ccco3)o2)c1 [Compound 278] |
| 94% |  | 120 nM | 100% |  | CCc1ccc(OC)c(C(=O)Nc2cccc(-c3nnc(-c4ccco4)o3)c2)c1 [Compound 280] |
|  |  | 120 nM |  |  | O=C(Nc1cccc(-c2nnc(-c3ccco3)o2)c1)c1cc(Cl)ccc1OCC(F)F [Compound 286] |
| 48% |  |  | 59% |  | O=C(Nc1cc(-c2ncc(-c3ccco3)o2)ccc1F)c1cccnc1F [Compound 288] |
| 24% |  |  | 31% |  | O=C(Nc1cc(-c2nnc(-c3cncs3)o2)ccc1F)c1ccccc1F [Compound 290, 2-fluoro-N-(2-fluoro-5-(5-(thiazol-5-yl)-1,3,4-oxadiazol-2-yl)phenyl)benzamide] |
| 14% |  |  | 12% |  | O=C(Nc1cccc(-c2nnc(-c3cncs3)o2)c1)c1ccccc1F [Compound 292] |
| 37% |  |  |  |  | O=C(Nc1cc(Cl)cc(-c2nnc(-c3ccco3)o2)c1)c1ccccc1F [Compound 295] |
| 55% |  |  | 73% |  | O=C(Nc1cccc(-c2nnc(-c3ccco3)o2)c1)c1cccc2c1OCCC2 [Compound 296] |
| 75% |  | 290 nM | 83% |  | O=C(Nc1cccc(-c2nnc(-c3ccco3)o2)c1Cl)c1ccccc1F [Compound 297] |
| 15% |  |  |  |  | O=C(Nc1cccc(-c2nnc(-c3cc[nH]n3)o2)c1)c1ccccc1F [Compound 298, N-(3-(5-(1H-pyrazol-3-yl)-1,3,4-oxadiazol-2-yl)phenyl)-2-fluorobenzamide] |
|  |  | 100 nM |  |  | O=C(Nc1cc(-c2nnc(-c3ccco3)o2)ccc1F)c1ccccc1OC(F)(F)F [Compound 301, N-(2-Fluoro-5-(5-(furan-2-yl)-1,3,4-oxadiazol-2-yl)phenyl)-2-(trifluoromethoxy)benzamide] |
| 63% |  |  |  |  | O=C(Nc1cc(-c2nnc(-c3ccco3)s2)ccc1F)c1ccccc1F [Compound 325] |
| 12% |  |  |  |  | O=C(Nc1cc(-c2nnc(-c3ccco3)o2)ccc1F)c1ccc2c(c1)COC2 [Compound 331] |
